Data: ChEMBL document CHEMBL1201862, “PubChem BioAssay data set” (2004)
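Assay format: 96-well plates, 48-hour exposure. At the GI50, growth is halved.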 Calls of active or inactive are those of the source. No stated cut-off is given here; in the data, active = GI50 up to about 1.1 µM and inactive = higher.

Columns and labels:
Assay in all cases: NCI-60 cell line screen, 48 h
786-0 = tested on: 786-0
A498 = tested on: A498
A549 = tested on: A549
ACHN = tested on: ACHN
CAKI-1 = tested on: CAKI-1
CCRF-CEM = tested on: CCRF-CEM
COLO 205 = tested on: COLO 205
DU-145 = tested on: DU-145
EKVX = tested on: EKVX
HCC 2998 = tested on: HCC 2998
HCT-116 = tested on: HCT-116
HCT-15 = tested on: HCT-15
HL-60 = tested on: HL-60
HOP-92 = tested on: HOP-92
Hs-578T = tested on: Hs-578T
IGROV-1 = tested on: IGROV-1
K562 = tested on: K562
KM12 = tested on: KM12
LOX IMVI = tested on: LOX IMVI
M14 = tested on: M14
MCF7 = tested on: MCF7
MDA-MB-231 = tested on: MDA-MB-231
MDA-MB-435 = tested on: MDA-MB-435
MDA-N = tested on: MDA-N
MOLT-4 = tested on: MOLT-4
Malme-3M = tested on: Malme-3M
NCI-H226 = tested on: NCI-H226
NCI-H23 = tested on: NCI-H23
NCI-H460 = tested on: NCI-H460
NCI-H522 = tested on: NCI-H522
NCI/ADR-RES = tested on: NCI/ADR-RES
OVCAR-3 = tested on: OVCAR-3
OVCAR-4 = tested on: OVCAR-4
OVCAR-5 = tested on: OVCAR-5
OVCAR-8 = tested on: OVCAR-8
PC-3 = tested on: PC-3
RPMI-8226 = tested on: RPMI-8226
RXF 393 = tested on: RXF 393
SF-268 = tested on: SF-268
SF-295 = tested on: SF-295
SF-539 = tested on: SF-539
SK-MEL-28 = tested on: SK-MEL-28
SK-MEL-2 = tested on: SK-MEL-2
SK-MEL-5 = tested on: SK-MEL-5
SN12C = tested on: SN12C
SNB-19 = tested on: SNB-19
SNB-75 = tested on: SNB-75
SR = tested on: SR
SW-620 = tested on: SW-620
T47D = tested on: T47D
TK-10 = tested on: TK-10
U-251 = tested on: U-251
UACC-257 = tested on: UACC-257
UACC-62 = tested on: UACC-62
HOP-62 = tested on: HOP-62
HT-29 = tested on: HT-29
SK-OV-3 = tested on: SK-OV-3
UO-31 = tested on: UO-31
BT-549 = tested on: BT-549

Cc1cc2c(cc1-c1cc3c(cc1C)C(C(C)C)=C(O)C(=O)/C3=C\Nc1ccccn1)/C(=C/Nc1ccccn1)C(=O)C(O)=C2C(C)C
GI50 (786-0): 52.2 µM (inactive)
GI50 (A498): > 100 µM (inactive)
GI50 (A549): 31.3 µM (inactive)
GI50 (ACHN): 43.3 µM (inactive)
GI50 (CAKI-1): 45.8 µM (inactive)
GI50 (CCRF-CEM): 12.2 µM (inactive)
GI50 (COLO 205): > 100 µM (inactive)
GI50 (DU-145): > 100 µM (inactive)
GI50 (EKVX): 37.8 µM (inactive)
GI50 (HCC 2998): 22.5 µM (inactive)
GI50 (HCT-116): 64.7 µM (inactive)
GI50 (HCT-15): 33.9 µM
GI50 (HL-60): 27.4 µM (inactive)
GI50 (HOP-92): > 100 µM (inactive)
GI50 (Hs-578T): 32 µM (inactive)
GI50 (IGROV-1): 31.1 µM (inactive)
GI50 (K562): 31.8 µM (inactive)
GI50 (KM12): 24.5 µM (inactive)
GI50 (LOX IMVI): 35.4 µM (inactive)
GI50 (M14): 87.5 µM (inactive)
GI50 (MCF7): 52.5 µM (inactive)
GI50 (MDA-MB-231): 94.6 µM (inactive)
GI50 (MDA-MB-435): 43.5 µM (inactive)
GI50 (MDA-N): 76.7 µM (inactive)
GI50 (MOLT-4): 25.7 µM (inactive)
GI50 (Malme-3M): 21.6 µM (inactive)
GI50 (NCI-H226): 23 µM (inactive)
GI50 (NCI-H23): 46.9 µM (inactive)
GI50 (NCI-H460): 43.2 µM (inactive)
GI50 (NCI-H522): 21.8 µM (inactive)
GI50 (NCI/ADR-RES): 27.9 µM (inactive)
GI50 (OVCAR-3): 34.3 µM (inactive)
GI50 (OVCAR-4): 34.9 µM (inactive)
GI50 (OVCAR-5): > 100 µM (inactive)
GI50 (OVCAR-8): 29 µM (inactive)
GI50 (PC-3): 41.7 µM (inactive)
GI50 (RPMI-8226): 21.7 µM (inactive)
GI50 (RXF 393): 45.5 µM (inactive)
GI50 (SF-268): 30.3 µM (inactive)
GI50 (SF-295): 49.9 µM (inactive)
GI50 (SF-539): 85.1 µM (inactive)
GI50 (SK-MEL-28): 58.2 µM (inactive)
GI50 (SK-MEL-2): 37.8 µM (inactive)
GI50 (SK-MEL-5): 30.3 µM (inactive)
GI50 (SN12C): 74.6 µM (inactive)
GI50 (SNB-19): 52.6 µM (inactive)
GI50 (SNB-75): 63.4 µM (inactive)
GI50 (SR): 42.7 µM (inactive)
GI50 (SW-620): 48 µM (inactive)
GI50 (T47D): > 100 µM (inactive)
GI50 (TK-10): > 100 µM (inactive)
GI50 (U-251): 34.4 µM (inactive)
GI50 (UACC-257): > 100 µM (inactive)
GI50 (UACC-62): 65 µM (inactive)

O=C(OC[C@H]1C[C@H]2C(=O)OCCC[C@H]2O1)c1ccccc1
GI50 (786-0): > 100 µM (inactive)
GI50 (A498): > 100 µM (inactive)
GI50 (A549): > 100 µM (inactive)
GI50 (ACHN): > 100 µM (inactive)
GI50 (CAKI-1): > 100 µM (inactive)
GI50 (CCRF-CEM): > 100 µM (inactive)
GI50 (COLO 205): > 100 µM (inactive)
GI50 (DU-145): > 100 µM (inactive)
GI50 (EKVX): > 100 µM (inactive)
GI50 (HCT-116): > 100 µM (inactive)
GI50 (HCT-15): > 100 µM
GI50 (HL-60): > 100 µM (inactive)
GI50 (HOP-62): > 100 µM (inactive)
GI50 (HOP-92): > 100 µM (inactive)
GI50 (HT-29): > 100 µM (inactive)
GI50 (Hs-578T): > 100 µM (inactive)
GI50 (IGROV-1): > 100 µM (inactive)
GI50 (K562): > 100 µM (inactive)
GI50 (KM12): > 100 µM (inactive)
GI50 (M14): > 100 µM (inactive)
GI50 (MCF7): > 100 µM (inactive)
GI50 (MDA-MB-231): > 100 µM (inactive)
GI50 (MDA-MB-435): > 100 µM (inactive)
GI50 (MDA-N): > 100 µM (inactive)
GI50 (MOLT-4): > 100 µM (inactive)
GI50 (NCI-H226): > 100 µM (inactive)
GI50 (NCI-H23): > 100 µM (inactive)
GI50 (NCI-H460): > 100 µM (inactive)
GI50 (NCI-H522): > 100 µM (inactive)
GI50 (NCI/ADR-RES): > 100 µM (inactive)
GI50 (OVCAR-3): > 100 µM (inactive)
GI50 (OVCAR-4): > 100 µM (inactive)
GI50 (OVCAR-5): > 100 µM (inactive)
GI50 (OVCAR-8): > 100 µM (inactive)
GI50 (PC-3): > 100 µM (inactive)
GI50 (RPMI-8226): > 100 µM (inactive)
GI50 (SF-268): > 100 µM (inactive)
GI50 (SF-295): > 100 µM (inactive)
GI50 (SK-MEL-28): > 100 µM (inactive)
GI50 (SK-MEL-2): > 100 µM (inactive)
GI50 (SK-MEL-5): > 100 µM (inactive)
GI50 (SK-OV-3): > 100 µM (inactive)
GI50 (SN12C): > 100 µM (inactive)
GI50 (SNB-19): > 100 µM (inactive)
GI50 (SNB-75): > 100 µM (inactive)
GI50 (SR): > 100 µM (inactive)
GI50 (SW-620): > 100 µM (inactive)
GI50 (T47D): > 100 µM (inactive)
GI50 (TK-10): > 100 µM (inactive)
GI50 (U-251): > 100 µM (inactive)
GI50 (UACC-257): > 100 µM (inactive)
GI50 (UACC-62): > 100 µM (inactive)
GI50 (UO-31): > 100 µM (inactive)

NS(=O)(=O)c1cc(S(N)(=O)=O)c(NC(=O)N(c2ccccc2)c2ccccc2)c(Cl)c1Cl
GI50 (786-0): 30.1 µM (inactive)
GI50 (A549): 31.8 µM (inactive)
GI50 (ACHN): 23.2 µM (inactive)
GI50 (BT-549): 15.9 µM (inactive)
GI50 (CAKI-1): 21.4 µM (inactive)
GI50 (CCRF-CEM): 1.98 µM (inactive)
GI50 (COLO 205): 22.9 µM (inactive)
GI50 (EKVX): 19.1 µM (inactive)
GI50 (HCC 2998): 19.2 µM (inactive)
GI50 (HCT-116): 38.7 µM (inactive)
GI50 (HCT-15): 20.3 µM
GI50 (HL-60): 24.8 µM (inactive)
GI50 (HOP-92): 1.72 µM (inactive)
GI50 (HT-29): 19.5 µM (inactive)
GI50 (Hs-578T): 17.2 µM (inactive)
GI50 (IGROV-1): 8.13 µM (inactive)
GI50 (K562): 20.1 µM (inactive)
GI50 (KM12): 20.3 µM (inactive)
GI50 (LOX IMVI): 12.5 µM (inactive)
GI50 (M14): 15.7 µM (inactive)
GI50 (MCF7): 35 µM (inactive)
GI50 (MDA-MB-231): 33 µM (inactive)
GI50 (MDA-MB-435): 21.5 µM (inactive)
GI50 (MDA-N): 24.7 µM (inactive)
GI50 (MOLT-4): 12.4 µM (inactive)
GI50 (NCI-H226): 18.9 µM (inactive)
GI50 (NCI-H23): 20 µM (inactive)
GI50 (NCI-H460): 34.9 µM (inactive)
GI50 (NCI-H522): 13.2 µM (inactive)
GI50 (NCI/ADR-RES): 19 µM (inactive)
GI50 (OVCAR-3): 18.5 µM (inactive)
GI50 (OVCAR-4): 27.4 µM (inactive)
GI50 (OVCAR-5): 42.1 µM (inactive)
GI50 (OVCAR-8): 13.2 µM (inactive)
GI50 (PC-3): 24 µM (inactive)
GI50 (RPMI-8226): 15.3 µM (inactive)
GI50 (SF-268): 42.2 µM (inactive)
GI50 (SF-295): 30.2 µM (inactive)
GI50 (SK-MEL-28): 34.4 µM (inactive)
GI50 (SK-MEL-2): 22.6 µM (inactive)
GI50 (SK-MEL-5): 14.1 µM (inactive)
GI50 (SK-OV-3): 24 µM (inactive)
GI50 (SN12C): 19.5 µM (inactive)
GI50 (SNB-19): 40.4 µM (inactive)
GI50 (SR): 18.4 µM (inactive)
GI50 (SW-620): 29.9 µM (inactive)
GI50 (TK-10): 32.7 µM (inactive)
GI50 (U-251): 24.3 µM (inactive)
GI50 (UACC-257): 10.4 µM (inactive)
GI50 (UACC-62): 26.2 µM (inactive)
GI50 (UO-31): 20.2 µM (inactive)
